Reference: ChEMBL document CHEMBL1201862, “PubChem BioAssay data set” (2004)
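Results reflect a 48-hour exposure of cells in 96-well plates to compound at five concentrations. GI50 marks 50% less growth.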 Active and inactive are the calls of the source. Rule as the data show it: active = GI50 up to about 1.1 µM and inactive = higher. Where a SMILES comes first, the peptide text is derived from it. [ ]: non-standard residue; d: D form. The star is where a group is joined. ξ: configuration not given here. X4 = COc1ccc(C(N*)c2ccc(OC)cc2)cc1; NMeF = CN[C@@H](Cc1ccccc1)C(=O)O; NMeD = CN[C@@H](CC(=O)O)C(=O)O; NMeV = CN[C@H](C(=O)O)C(C)C; ξNMeV = CNC(C(=O)O)C(C)C; Boc = CC(C)(C)OC(=O)*; ξNMeA = CNC(C)C(=O)O; ξV = CC(C)C(N)C(=O)O

Assays:
Experiment in all cases: NCI-60 cell line screen, 48 h
786-0 = test system: 786-0
A498 = test system: A498
A549 = test system: A549
CCRF-CEM = test system: CCRF-CEM
COLO 205 = test system: COLO 205
DU-145 = test system: DU-145
HCC 2998 = test system: HCC 2998
HCT-116 = test system: HCT-116
M14 = test system: M14
MDA-MB-231 = test system: MDA-MB-231
MDA-MB-435 = test system: MDA-MB-435
NCI-H23 = test system: NCI-H23
NCI/ADR-RES = test system: NCI/ADR-RES
SF-268 = test system: SF-268
SF-295 = test system: SF-295
SF-539 = test system: SF-539
SK-MEL-5 = test system: SK-MEL-5
SNB-19 = test system: SNB-19
U-251 = test system: U-251
UO-31 = test system: UO-31

Which results are given for `COc1ccc(C(NC(=O)C[C@@H](C(=O)N(C)C(C)C(=O)O)N(C)C(=O)[C@@H]2CCCN2C(=O)[C@H](C(C)C)N(C)C(=O)C(C(C)C)N(C)C(=O)[C@H](Cc2ccccc2)N(C)C(=O)C(NC(=O)OC(C)(C)C)C(C)C)c2ccc(OC)cc2)cc1` (some centres undefined) (Boc-[ξV][NMeF][ξNMeV][NMeV]P[NMeD](X4)[ξNMeA]-OH)?
GI50 (786-0): 21.3 µM (inactive); GI50 (A498): > 37.5 µM (inactive); GI50 (A549): > 37.5 µM (inactive); GI50 (CCRF-CEM): 7.43 µM (inactive); GI50 (COLO 205): 20.4 µM (inactive); GI50 (DU-145): 25.9 µM (inactive); GI50 (HCC 2998): 6.76 µM (inactive); GI50 (HCT-116): 13.1 µM (inactive); GI50 (M14): 11.8 µM (inactive); GI50 (MDA-MB-231): 11.3 µM (inactive); GI50 (MDA-MB-435): 9.1 µM (inactive); GI50 (NCI-H23): 10.4 µM (inactive); GI50 (NCI/ADR-RES): > 37.5 µM (inactive); GI50 (SF-268): 7.53 µM (inactive); GI50 (SF-295): 18.9 µM (inactive); GI50 (SF-539): 7.94 µM (inactive); GI50 (SK-MEL-5): 6.52 µM (inactive); GI50 (SNB-19): 22.4 µM (inactive); GI50 (U-251): 9.75 µM (inactive); GI50 (UO-31): 24.8 µM (inactive)

Which GI50 (786-0) does the source give for `O=Nn1c2ccccc2c2ccccc21` here?
The GI50 was 95.1 µM (inactive).

What about the GI50 (A498) of the same compound?
Its GI50 is 23.8 µM (inactive).

What about the GI50 (A549) of the same compound?
Its GI50 is 17.5 µM (inactive).

And the GI50 (CCRF-CEM)?
The GI50 was 45.7 µM (inactive).

What about the GI50 (COLO 205) of the same compound?
The GI50 was 14.1 µM (inactive).

What about the GI50 (DU-145) of the same compound?
Its GI50 is > 100 µM (inactive).

What about the GI50 (HCC 2998) of the same compound?
The GI50 was 17.1 µM (inactive).

What about the GI50 (HCT-116) of the same compound?
The GI50 was 85.9 µM (inactive).

What about the GI50 (M14) of the same compound?
The GI50 was 74.1 µM (inactive).

What about the GI50 (MDA-MB-231) of the same compound?
The GI50 was 65.2 µM (inactive).

And the GI50 (MDA-MB-435)?
The GI50 was 77.4 µM (inactive).

And the GI50 (NCI-H23)?
The GI50 was 58.2 µM (inactive).

And the GI50 (NCI/ADR-RES)?
The GI50 was 52.8 µM (inactive).

And the GI50 (SF-268)?
The GI50 was > 100 µM (inactive).

And the GI50 (SF-295)?
The GI50 was 42.9 µM (inactive).

And the GI50 (SF-539)?
Its GI50 is > 100 µM (inactive).

What about the GI50 (SK-MEL-5) of the same compound?
The GI50 was 63.1 µM (inactive).

What about the GI50 (SNB-19) of the same compound?
Its GI50 is 88.9 µM (inactive).

What about the GI50 (U-251) of the same compound?
The GI50 was 92.9 µM (inactive).

What about the GI50 (UO-31) of the same compound?
Its GI50 is 34.4 µM (inactive).

Which results are given for `CCOC(=O)/C(C(N)=O)=C(O)/C(O)=C(\Br)C(=O)c1ccccc1`?
GI50 (786-0): 15.8 µM (inactive); GI50 (A498): > 100 µM (inactive); GI50 (A549): 20.4 µM (inactive); GI50 (CCRF-CEM): 0.979 µM (active); GI50 (COLO 205): 17.3 µM (inactive); GI50 (DU-145): 19.6 µM (inactive); GI50 (HCC 2998): 22 µM (inactive); GI50 (HCT-116): 16.4 µM (inactive); GI50 (M14): 14.6 µM (inactive); GI50 (MDA-MB-231): 19.6 µM (inactive); GI50 (MDA-MB-435): 16.9 µM (inactive); GI50 (NCI-H23): 18.8 µM (inactive); GI50 (NCI/ADR-RES): 25.8 µM (inactive); GI50 (SF-268): 19.5 µM (inactive); GI50 (SF-295): 56.8 µM (inactive); GI50 (SF-539): 18.5 µM (inactive); GI50 (SK-MEL-5): 16.6 µM (inactive); GI50 (SNB-19): 47 µM (inactive); GI50 (U-251): 18.2 µM (inactive); GI50 (UO-31): 18.9 µM (inactive)

Which GI50 (786-0) does the source give for `CCOC(=O)n1ccc2c(C(=O)OC)c(C(=O)OC)cc(/C(=C/C(=O)OC)C(=O)OC)c21` here?
The GI50 was > 100 µM (inactive).

And the GI50 (A498)?
The GI50 was > 100 µM (inactive).

What about the GI50 (A549) of the same compound?
Its GI50 is > 100 µM (inactive).

And the GI50 (CCRF-CEM)?
Its GI50 is 10.4 µM (inactive).

What about the GI50 (COLO 205) of the same compound?
Its GI50 is > 100 µM (inactive).

What about the GI50 (DU-145) of the same compound?
Its GI50 is > 100 µM (inactive).

And the GI50 (HCC 2998)?
Its GI50 is > 100 µM (inactive).

And the GI50 (HCT-116)?
The GI50 was 89.3 µM (inactive).

And the GI50 (M14)?
The GI50 was > 100 µM (inactive).

What about the GI50 (MDA-MB-231) of the same compound?
The GI50 was > 100 µM (inactive).

And the GI50 (MDA-MB-435)?
The GI50 was > 100 µM (inactive).

What about the GI50 (NCI-H23) of the same compound?
The GI50 was > 100 µM (inactive).

What about the GI50 (NCI/ADR-RES) of the same compound?
The GI50 was > 100 µM (inactive).

And the GI50 (SF-268)?
Its GI50 is > 100 µM (inactive).

And the GI50 (SF-295)?
The GI50 was > 100 µM (inactive).

What about the GI50 (SF-539) of the same compound?
The GI50 was > 100 µM (inactive).

And the GI50 (SK-MEL-5)?
Its GI50 is > 100 µM (inactive).

What about the GI50 (SNB-19) of the same compound?
Its GI50 is > 100 µM (inactive).

What about the GI50 (U-251) of the same compound?
Its GI50 is > 100 µM (inactive).

And the GI50 (UO-31)?
The GI50 was 92.5 µM (inactive).

Which GI50 (786-0) does the source give for `CCOP(=O)(OCC)C(C)(CC)N/C(=N\C1=NC(C(F)(F)F)(C(F)(F)F)N=C(C(F)(F)F)O1)NC(NC(C)=O)(C(F)(F)F)C(F)(F)F` (centres undefined) here?
The GI50 was 37.3 µM (inactive).

What about the GI50 (A498) of the same compound?
Its GI50 is 38.9 µM (inactive).

What about the GI50 (A549) of the same compound?
Its GI50 is 53.5 µM (inactive).

What about the GI50 (CCRF-CEM) of the same compound?
Its GI50 is 15.8 µM (inactive).

And the GI50 (COLO 205)?
Its GI50 is 16.1 µM (inactive).

What about the GI50 (DU-145) of the same compound?
The GI50 was 81.5 µM (inactive).

And the GI50 (HCC 2998)?
Its GI50 is 34 µM (inactive).

What about the GI50 (HCT-116) of the same compound?
Its GI50 is 33.3 µM (inactive).

What about the GI50 (M14) of the same compound?
Its GI50 is 22.9 µM (inactive).

What about the GI50 (MDA-MB-231) of the same compound?
Its GI50 is 22.9 µM (inactive).

And the GI50 (MDA-MB-435)?
Its GI50 is 32.7 µM (inactive).

What about the GI50 (NCI-H23) of the same compound?
Its GI50 is 18.2 µM (inactive).

And the GI50 (NCI/ADR-RES)?
Its GI50 is 17.9 µM (inactive).

What about the GI50 (SF-268) of the same compound?
The GI50 was 52.2 µM (inactive).

And the GI50 (SF-295)?
Its GI50 is 18 µM (inactive).

What about the GI50 (SF-539) of the same compound?
The GI50 was 40.2 µM (inactive).

And the GI50 (SK-MEL-5)?
Its GI50 is 14.1 µM (inactive).

What about the GI50 (SNB-19) of the same compound?
The GI50 was 60.4 µM (inactive).

What about the GI50 (U-251) of the same compound?
The GI50 was 31 µM (inactive).
